ChEMBL document CHEMBL1201862, “PubChem BioAssay data set” (2004)
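The compound was tested at five concentrations on cells cultured in 96-well plates, with a 48-hour exposure period. GI50 = concentration required for 50% inhibition of growth.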 Activity calls are given as the source filed them. Cut-off read from the data, not from the text of the source: active = GI50 up to about 1.1 µM and inactive = higher.

What was measured:
Assay in all cases: NCI tumour cell line growth inhibition, 48 h
[1] = tested on: NCI-H460
[2] = tested on: A549
[3] = tested on: ACHN
[4] = tested on: OVCAR-8
[5] = tested on: BT-549
[6] = tested on: MOLT-4
[7] = tested on: MCF7
[8] = tested on: SNB-75
[9] = tested on: A498
[10] = tested on: U-251
[11] = tested on: NCI-H23
[12] = tested on: RXF 393
[13] = tested on: HT-29
[14] = tested on: DU-145
[15] = tested on: UO-31
[16] = tested on: UACC-257
[17] = tested on: NCI-H226
[18] = tested on: HL-60
[19] = tested on: 786-0
[20] = tested on: TK-10
[21] = tested on: SN12C
[22] = tested on: UACC-62
[23] = tested on: SF-295
[24] = tested on: MDA-MB-435
[25] = tested on: SR
[26] = tested on: IGROV-1
[27] = tested on: HOP-92
[28] = tested on: Malme-3M
[29] = tested on: HCT-15
[30] = tested on: RPMI-8226
[31] = tested on: Hs-578T
[32] = tested on: K562
[33] = tested on: EKVX
[34] = tested on: CAKI-1
[35] = tested on: SNB-19
[36] = tested on: OVCAR-5
[37] = tested on: SK-MEL-2
[38] = tested on: KM12
[39] = tested on: MDA-MB-231
[40] = tested on: SF-539
[41] = tested on: HOP-62
[42] = tested on: OVCAR-4
[43] = tested on: OVCAR-3
[44] = tested on: NCI/ADR-RES
[45] = tested on: HCC 2998
[46] = tested on: PC-3
[47] = tested on: SK-OV-3
[48] = tested on: SK-MEL-5
[49] = tested on: SW-620
[50] = tested on: COLO 205
[51] = tested on: HCT-116
[52] = tested on: CCRF-CEM
[53] = tested on: SF-268
[54] = tested on: SK-MEL-28
[55] = tested on: M14
[56] = tested on: NCI-H522
[57] = tested on: T47D
[58] = tested on: LOX IMVI
[59] = tested on: MDA-N

Structure (SMILES): CN(C)P(=O)(Oc1ccc(CC(NC(=O)OCc2ccccc2)C(=O)OCc2ccccc2)cc1)N(C)C (configuration not stated)
- GI50 [1]: 21 µM (inactive)
- GI50 [2]: 19.2 µM (inactive)
- GI50 [3]: 18.5 µM (inactive)
- GI50 [4]: 15.9 µM (inactive)
- GI50 [5]: 17.1 µM (inactive)
- GI50 [6]: 3.35 µM (inactive)
- GI50 [7]: 12.4 µM (inactive)
- GI50 [8]: 17.2 µM (inactive)
- GI50 [9]: 19.4 µM (inactive)
- GI50 [10]: 13.8 µM (inactive)
- GI50 [11]: 14.1 µM (inactive)
- GI50 [12]: 17.5 µM (inactive)
- GI50 [13]: 10.1 µM (inactive)
- GI50 [14]: 15.7 µM (inactive)
- GI50 [15]: 18.5 µM (inactive)
- GI50 [16]: 21.4 µM (inactive)
- GI50 [17]: 26.4 µM (inactive)
- GI50 [18]: 13.2 µM (inactive)
- GI50 [19]: 4.94 µM (inactive)
- GI50 [20]: 21.7 µM (inactive)
- GI50 [21]: 15.1 µM (inactive)
- GI50 [22]: 15.2 µM (inactive)
- GI50 [23]: 18.2 µM (inactive)
- GI50 [24]: 12.2 µM (inactive)
- GI50 [25]: 4.56 µM (inactive)
- GI50 [26]: 17.2 µM (inactive)
- GI50 [27]: 17.8 µM (inactive)
- GI50 [28]: 17.3 µM (inactive)
- GI50 [29]: 17.4 µM
- GI50 [30]: 2.77 µM (inactive)
- GI50 [31]: 24.4 µM (inactive)
- GI50 [32]: 22.7 µM (inactive)
- GI50 [33]: 15.7 µM (inactive)
- GI50 [34]: 17.6 µM (inactive)
- GI50 [35]: 20 µM (inactive)
- GI50 [36]: 20 µM (inactive)
- GI50 [37]: 15.6 µM (inactive)
- GI50 [38]: 20 µM (inactive)
- GI50 [39]: 17.5 µM (inactive)
- GI50 [40]: 22.3 µM (inactive)
- GI50 [41]: 17.1 µM (inactive)
- GI50 [42]: 20.7 µM (inactive)
- GI50 [43]: 3.43 µM (inactive)
- GI50 [44]: 17.9 µM (inactive)
- GI50 [45]: 18.3 µM (inactive)
- GI50 [46]: 15.2 µM (inactive)
- GI50 [47]: 17.8 µM (inactive)
- GI50 [48]: 20.7 µM (inactive)
- GI50 [49]: 18.2 µM (inactive)
- GI50 [50]: 20.9 µM (inactive)
- GI50 [51]: 15.9 µM (inactive)
- GI50 [52]: 2.43 µM (inactive)
- GI50 [53]: 13.4 µM (inactive)
- GI50 [54]: 16.8 µM (inactive)
- GI50 [55]: 13.4 µM (inactive)
- GI50 [56]: 13.9 µM (inactive)
- GI50 [57]: 21 µM (inactive)
- GI50 [58]: 16 µM (inactive)
- GI50 [59]: 16.8 µM (inactive)

Structure (SMILES): CC/C(Cl)=N\OC(=O)Nc1ccc(C#N)cc1
- GI50 [1]: 19.5 µM (inactive)
- GI50 [2]: 18.2 µM (inactive)
- GI50 [3]: 14.3 µM (inactive)
- GI50 [4]: 16.9 µM (inactive)
- GI50 [5]: 15.1 µM (inactive)
- GI50 [6]: 2.28 µM (inactive)
- GI50 [7]: 15.1 µM (inactive)
- GI50 [8]: 14.9 µM (inactive)
- GI50 [9]: 16.6 µM (inactive)
- GI50 [10]: 17.1 µM (inactive)
- GI50 [11]: 17.2 µM (inactive)
- GI50 [12]: 8.75 µM (inactive)
- GI50 [13]: 18.6 µM (inactive)
- GI50 [14]: 16 µM (inactive)
- GI50 [15]: 17.2 µM (inactive)
- GI50 [16]: 16.1 µM (inactive)
- GI50 [17]: 16.6 µM (inactive)
- GI50 [18]: 2.01 µM (inactive)
- GI50 [19]: 11.2 µM (inactive)
- GI50 [20]: 16.4 µM (inactive)
- GI50 [21]: 16.4 µM (inactive)
- GI50 [22]: 15 µM (inactive)
- GI50 [23]: 18.7 µM (inactive)
- GI50 [24]: 15.6 µM (inactive)
- GI50 [25]: 3.13 µM (inactive)
- GI50 [26]: 16.4 µM (inactive)
- GI50 [27]: 3.15 µM (inactive)
- GI50 [28]: 4.11 µM (inactive)
- GI50 [29]: 7.93 µM
- GI50 [30]: 2.28 µM (inactive)
- GI50 [31]: 21.9 µM (inactive)
- GI50 [32]: 1.86 µM (inactive)
- GI50 [33]: 13.3 µM (inactive)
- GI50 [34]: 5.04 µM (inactive)
- GI50 [35]: > 100 µM (inactive)
- GI50 [36]: 15.9 µM (inactive)
- GI50 [37]: 15.9 µM (inactive)
- GI50 [38]: 17.1 µM (inactive)
- GI50 [39]: 15.3 µM (inactive)
- GI50 [40]: 16.6 µM (inactive)
- GI50 [41]: 17.2 µM (inactive)
- GI50 [42]: 8.09 µM (inactive)
- GI50 [43]: 18.5 µM (inactive)
- GI50 [44]: 13.3 µM (inactive)
- GI50 [45]: 16.4 µM (inactive)
- GI50 [46]: 16.7 µM (inactive)
- GI50 [47]: 4.94 µM (inactive)
- GI50 [48]: 12.9 µM (inactive)
- GI50 [49]: 3.28 µM (inactive)
- GI50 [50]: 1.82 µM (inactive)
- GI50 [51]: 14.6 µM (inactive)
- GI50 [52]: 1.63 µM (inactive)
- GI50 [53]: 18.1 µM (inactive)
- GI50 [54]: 18 µM (inactive)
- GI50 [55]: 12.3 µM (inactive)
- GI50 [56]: 1.48 µM (inactive)
- GI50 [57]: 10.8 µM (inactive)
- GI50 [58]: 4.47 µM (inactive)
- GI50 [59]: 16.3 µM (inactive)

Structure (SMILES): COc1ccc2nc(N/N=C/C(C)=N/Nc3cc(C)c4cc(OC)ccc4n3)cc(C)c2c1
- GI50 [1]: 14.7 µM (inactive)
- GI50 [2]: 19.7 µM (inactive)
- GI50 [3]: 26.7 µM (inactive)
- GI50 [4]: 19.1 µM (inactive)
- GI50 [5]: 74.3 µM (inactive)
- GI50 [6]: 21.2 µM (inactive)
- GI50 [7]: 14.3 µM (inactive)
- GI50 [8]: 21.9 µM (inactive)
- GI50 [9]: > 68.2 µM (inactive)
- GI50 [10]: 16.2 µM (inactive)
- GI50 [11]: 23.1 µM (inactive)
- GI50 [12]: 39.9 µM (inactive)
- GI50 [13]: 12.7 µM (inactive)
- GI50 [14]: 18.1 µM (inactive)
- GI50 [15]: > 80.4 µM (inactive)
- GI50 [16]: 58.5 µM (inactive)
- GI50 [17]: 45.6 µM (inactive)
- GI50 [18]: 18.5 µM (inactive)
- GI50 [19]: 14 µM (inactive)
- GI50 [20]: 30.5 µM (inactive)
- GI50 [21]: 23.9 µM (inactive)
- GI50 [22]: 30.8 µM (inactive)
- GI50 [23]: 25.1 µM (inactive)
- GI50 [24]: 29 µM (inactive)
- GI50 [25]: 5.11 µM (inactive)
- GI50 [26]: 21 µM (inactive)
- GI50 [27]: 36.2 µM (inactive)
- GI50 [28]: 50.9 µM (inactive)
- GI50 [29]: 9.75 µM
- GI50 [30]: 7.33 µM (inactive)
- GI50 [31]: 31 µM (inactive)
- GI50 [32]: 3.9 µM (inactive)
- GI50 [33]: 19.2 µM (inactive)
- GI50 [34]: 49.4 µM (inactive)
- GI50 [35]: 23.1 µM (inactive)
- GI50 [36]: 27.4 µM (inactive)
- GI50 [37]: > 68.1 µM (inactive)
- GI50 [38]: 18.7 µM (inactive)
- GI50 [39]: 19 µM (inactive)
- GI50 [40]: 17.8 µM (inactive)
- GI50 [41]: 28.6 µM (inactive)
- GI50 [42]: 18.5 µM (inactive)
- GI50 [43]: 26.5 µM (inactive)
- GI50 [44]: 22 µM (inactive)
- GI50 [45]: 20.1 µM (inactive)
- GI50 [46]: 22.3 µM (inactive)
- GI50 [47]: > 83.8 µM (inactive)
- GI50 [48]: 26.5 µM (inactive)
- GI50 [49]: 17 µM (inactive)
- GI50 [50]: 23.2 µM (inactive)
- GI50 [51]: 14.2 µM (inactive)
- GI50 [52]: 2.47 µM (inactive)
- GI50 [53]: 25.6 µM (inactive)
- GI50 [54]: 35.2 µM (inactive)
- GI50 [55]: 39.1 µM (inactive)
- GI50 [56]: 20.3 µM (inactive)
- GI50 [57]: 29.8 µM (inactive)
- GI50 [58]: 22.6 µM (inactive)
- GI50 [59]: 23.7 µM (inactive)
